Data: US7345078B2, “NF-κB inhibitors and uses thereof” (The Board of Trustees of Michigan State University, priority 2002, dated 2008)
pIC50: −log10 of the molar value. “Also recorded” adds a separate entry of the source. Where two headings read alike, the source gives them in different places.

Columns and labels:
[1] = target: T1, NF-κB (Homo sapiens, UniProt P19838+Q04206); assay: EMSA of nuclear NF-κB-DNA binding in nuclear extracts of PMA-stimulated Jurkat leukemia T-cells; type: cell-based; design: endogenous in cells; host or cells: Jurkat leukemia T-cells, clone E6-1 (ATCC), PMA-stimulated; nuclear extract; conditions: for inhibition at 0.1 µM: compound 0.1 μM (100 nM)
Experimental: (§1) All compounds were evaluated for their potential anti-inflammatory activity by examining the activity of NF-κB in vitro in nuclear extracts using the procedure from Breton and Charbot-Fletcher (Breton et al., J. Pharmacol. Exp. Ther. 282 459-466 (1997)). […] The Jurkat cells (1×10^7 cells/mL) are subsequently treated with various concentrations of imidazoline for 30 minutes at 37° C. followed by PMA stimulation (5.0 ng/mL) for an additional 5 hours. Nuclear extracts are incubated for 20 minutes with a double stranded Cy3 labeled NF-κB consensus oligonucleotide, 5′-[…]-3′ (SEQ ID NO:1) at room temperature. The crude mixture is loaded on a 5% non-denaturing polyacrylamide gel prepared in 1×Tris borate/EDTA buffer and electrophoresed at 200V for 2 hours. After electrophoresis the gel is analyzed using a phosphorimager (Biorad FX PLUS) for detection of the NF-κB-DNA binding.
EMSA assay for NF-κB-DNA binding was as follows. […] The Jurkat cells (1×10^6 cells/mL) were subsequently treated with various concentrations of the compounds for 30 minutes at 37° C. and 5% CO2 followed by PMA (50 ng/mL) and PHA ([…]) stimulation for an additional 30 minutes. The cells were harvested by centrifugation, washed in ice cold PBS and the nuclear extracts were prepared as previously described (Dignam, et al., Nucl. Acids Res 11: 1475-1489 (1983)). The protein concentration of the extracts was determined according to the Method of Bradford (1976) with BioRad reagents. Nuclear extracts are incubated for 20 minutes at room temperature with a double stranded Cy3 labeled NF-kB consensus oligonucleotide, 5′-[…] CCAGGC-3′ (SEQ ID NO:1). The binding mixture ([…]) contained 10 mM HEPES-NaOH pH 7.9, 4 mM tris-HCl, pH 7.9, 6.0 mM KCl, 1 mM EDTA, 1 mM DTT, 10% glycerol, 0.3 mg/mL bovide serum albumin and […] of poly (dI.dC). The binding mixtures ([…] of nuclear extract protein) were incubated for 20 minutes at room temrperature with 0.16 pmol of Cy3 labeled oligonucleotide. The mixture was loaded on a 4% polyacrylamide gel prepared in 1× tris borate/EDTA buffer and was electrophoresed at 200 V for 20 minutes. After electrophoresis the gel was analyzed using a phosphorimager (Biorad FX plus) for detection of the NF-kB—DNA binding.

[2] = target: T1, NF-κB; assay: IC50 values in Mammalian Jurkat cells Leukemia T cells; type: cell-based; design: endogenous in cells; host or cells: Jurkat leukemia T-cells, clone E6-1 (ATCC), PMA-stimulated; nuclear extract; conditions: concentration at which 50% of the protein/enzyme is inhibited in cells
Experimental: as §1
IC50 values in Mammalian Jurkat cells Leukemia T cells: IC50 value is defined as the concentration of compounds at which 50% of the protein/enzyme is inhibited in cells (Table 3).

[3] = tested on: RIF-1 murine tumor; assay: RIF-1 murine model of tumor growth delay; type: in vivo, mice; conditions: for Days Delay (tumor growth delay) / Median (days to 4x) / Days to 4x (Ave ±SE): IP, imidazoline 100 mg/kg, cis-platin 4 mg/kg, camptothecin 6 mg/kg; for Median (days to 4x): untreated 7.0; for Days to 4x (Ave ±SE): untreated 7.3 ± 0.6; for chemopotentiation of camptothecin: combinational treatment with camptothecin (CPT); for chemopotentiation of camptothecin / chemopotentiation of cis-platin: RIF-1 tumors in mice; for chemopotentiation of cis-platin: combinational treatment with cis-platin (CDDP)
Experimental: Tumor cells were injected, bilaterally, into the backs of mice. When tumors reached 100 mm^3, the mice were treated with an intraperitoneal injection of the compound. Tumor volumes were measured 3 times a week until they reached 4 times the size they were on the first treatment day. Data is recorded as “Days to 4×’ or ratio of ‘Days to 4×” of the treated over untreated controls.

[4] = tested on: Micrococcus luteus; assay: standardized disk diffusion method (zone diameter / MIC); type: cell-based; conditions: at the amount printed in the same cell
Experimental: (§2) Compounds 4, 6, and 7 were tested for the inhibition of bacteria. A total of 9 bacterial strains were screened. The following Gram-negative and Gram-positive bacteria were included: Staphylococcus aureus, Enterobacter aerogenes, Esherichia coli, Klebsiella pneumonia, Pseudomonas aeruginosa, Serratia marcescens, Bacillus cerius, Bacillus subtillus and micrococcus luteus. Bacterial isolates were removed from storage, streaked on to nutrient agar plates and incubated for 18-24 hours at 35° C. A working bacterial suspension was prepared by suspending 3-5 isolated colonies in 5 mL saline solution. The turbidity of this suspension was carefully adjusted photometrically to equal that of a 0.5 McFarland standard. The zone diameters were determined by a standardized disk diffusion method using cation-supplemented Mueller-Hinton agar according to NCCLS guidelines (National Committee for Clinical Laboratory Standards. Methods for dilution Antimicrobial Susceptibility Tests for Bacteria that Grow Aerobically. Fifth Edition: Approved Standard M7-A5. Wayne, Pa.: NCCLS (2000)). Minimum inhibitory concentrations (MICs) were considered the lowest concentration that gave a clear zone of inhibition. The inoculated agar plates were incubated for 16-20 hours at 35° C. in ambient air. The diameters of the zones were read in millimeters.

[5] = tested on: Staphylococcus aureus; assay: as above; type: cell-based; conditions: at the amount printed in the same cell
Experimental: as §2

[6] = tested on: Bacillus subtillus; assay: as above; type: cell-based; conditions: at the amount printed in the same cell
Experimental: as §2

[7] = tested on: Bacillus cereus; assay: as above; type: cell-based; conditions: at the amount printed in the same cell
Experimental: as §2

[8] = tested on: CEM cells
Experimental: Imidazolines 28-33 were evaluated for their ability to enhance the activity of camptothecin in CEM cells. Induction of apoptosis is the hallmark of most chemotherapeutic agents including camptothecin. The systematic disassembly of apoptotic cells is accomplished by active caspases (Thornberry et al., Nature 356: 768-774 (1992); Nicholson et al., Trends Biochem. Sci. 22: 299-306 (1997)). A standard apoptosis assay is Promega's APO-ONE homogeneous caspase-3/7 assay, which takes advantage of this caspase activity to directly quantify the induction of apoptosis in cells (Thornberry et al., Nature 356: 768-774 (1992); Nicholson et al., Trends Biochem. Sci. 22: 299-306 (1997)). According to the hypothesis that NF-κB inhibition should enhance the activity of chemotherapeutic agents via the inhibition of anti-apoptotic signaling pathway—thus enhancement of apoptosis—(Boland, Biochem Soc Trans 29: 674-678 (2001); Chiao et al., Cancer 95: 1696-1705 (2002)), we investigated the effects of the imidazolines using this caspase-3/7 assay. This assay quantifies the level of apoptotic cell death induced by camptothecin with and without the imidazolines and will establish the direct level of enhancement of apoptosis by camptothecin.
Induction of apoptosis using caspase 3/7 assay was as follows. CEM cells (CCRF-CEM); Amer. Type Culture Collection, Rockville, Md.) were grown in RPMI-1640 Media (Gibco-BRL, Rockville, Md.) supplemented with 10% fetal bovine serum, penicillin (614 ηg/mL), streptomycin (10 μg/mL) and hepes buffer, pH 7.2 at 37° C., 5% CO2. DMSO was used as the vector for all drugs and added in the control experiments. Cell cultures were treated with 1 μM, 0.1 μM or 10 nM of the imidazolines and allowed to incubate at 37° C., 5% CO2. An aliquote was transferred to a 96-well plate and mixed with an equal volume of Apo-ONE™ Homogenous Caspase-3/7 assay (Promega Corporation) reagent. The contents of the plate were gently mixed and allowed to incubate for 1 hour. The fluorescence of each well was then measured on a Molecular Imager FX Pro at 532 nm. All reported data was the average of two independent experiments unless otherwise indicated.

[9] = IP, doses 5.0 and 50 mg/kg
Experimental: Prior to the combinatorial studies, the toxicity of the compounds was determined in the mouse model. […] In short, the drugs are dissolved in DMSO and 100 μL given to the mice on day 0 by intraperitoneal injection (IP). […] Weight and death were the two measures of toxicity.

[10] = target: T1, NF-κB; assay: EMSA of camptothecin activated NF-κB in CEM leukemia T-cells; type: cell-based; design: endogenous in cells; nuclear extract; conditions: for inhibition of camptothecin induced NF-κB nuclear binding: CPT 0.1 μM, 32 at 10 μM to 10 nM, PDTC 5 μM
Experimental: CEM cells were incubated with and without varying concentrations of camptothecin (CPT). Positive controls included PMA/PHA activation (FIG. 11, lane 2). Lane 3 included a positive control using PMA/PHA activation followed by the treatment of the extract with a NF-κB p65 antibody to unambiguously identify the NF-κB/DNA complex.
CEM cells were treated with various concentration of imidazoline 32, 30 minutes prior to activation by camptothecin (0.1 μM). […] Control lanes include: DNA only (lane 1), PMA/PHA activated NF-κB (lane 2), PMA/PHA activated NF-κB treated with a p65 antibody, which provide a supershift (lane 3) and the unactivated control (lane 4).
EMSA assay for NF-κB-DNA binding was as follows. […] The cells were harvested by centrifugation, washed in ice cold PBS and the nuclear extracts were prepared as previously described (Dignam, et al., Nucl. Acids Res 11: 1475-1489 (1983)). The protein concentration of the extracts was determined according to the Method of Bradford (1976) with BioRad reagents. Nuclear extracts are incubated for 20 minutes at room temperature with a double stranded Cy3 labeled NF-kB consensus oligonucleotide, 5′-[sequence] […] The binding mixture (25 mL) contained 10 mM HEPES-NaOH pH 7.9, 4 mM tris-HCl, pH 7.9, 6.0 mM KCl, 1 mM EDTA, 1 mM DTT, 10% glycerol, 0.3 mg/mL bovide serum albumin and 1 mg of poly (dI.dC). The binding mixtures (10 mg of nuclear extract protein) were incubated for 20 minutes at room temrperature with 0.16 pmol of Cy3 labeled oligonucleotide. The mixture was loaded on a 4% polyacrylamide gel prepared in 1× tris borate/EDTA buffer and was electrophoresed at 200 V for 20 minutes. After electrophoresis the gel was analyzed using a phosphorimager (Biorad FX plus) for detection of the NF-kB—DNA binding.

[11] = tested on: NF-κB p50/p65 heterodimer; assay: p65-ELISA assay of NF-κB nuclear translocation in Jurkat cells; type: cell-based, Human; conditions: concentrations 100 ηM-5.0 μM, 30 minutes prior to PMA activation
Experimental: Inhibition of the nuclear translocation of the p50/p65 heterodimer of NF-κB was confirmed by a p65-ELISA assay. Cells were treated with the PDTC (positive control-reported to inhibit IκB phosphorylation thus inhibiting NF-κB translocation), and imidazoline 32, 30 minutes prior to PMA activation, followed by the isolation of the nuclear extract after a 30 minute incubation period.
The quantity of p65/p50 heterodimer that has translocated into the nucleus was measured using a NF-κB p65 sandwich ELISA assay (Imgenex Corp.). Jurkat cells were grown to 2×10^6 cells/mL and treated with 50 ng/mL PMA and 1 μg/mL PMA/PHA and incubated at 37° C., 5% CO2. The cells are harvested after 30 minutes and nuclear extracts are prepared as previously described by Dignam and coworkers (Dignam, et al., Nucl. Acids Res 11: 1475-1489 (1983)). The NF-κB p65 sandwich ELISA kit was then used to monitor and quantify p65 translocation into the nucleus according to the manufacturers protocol.

T1 sequence (Q04206 whole entry): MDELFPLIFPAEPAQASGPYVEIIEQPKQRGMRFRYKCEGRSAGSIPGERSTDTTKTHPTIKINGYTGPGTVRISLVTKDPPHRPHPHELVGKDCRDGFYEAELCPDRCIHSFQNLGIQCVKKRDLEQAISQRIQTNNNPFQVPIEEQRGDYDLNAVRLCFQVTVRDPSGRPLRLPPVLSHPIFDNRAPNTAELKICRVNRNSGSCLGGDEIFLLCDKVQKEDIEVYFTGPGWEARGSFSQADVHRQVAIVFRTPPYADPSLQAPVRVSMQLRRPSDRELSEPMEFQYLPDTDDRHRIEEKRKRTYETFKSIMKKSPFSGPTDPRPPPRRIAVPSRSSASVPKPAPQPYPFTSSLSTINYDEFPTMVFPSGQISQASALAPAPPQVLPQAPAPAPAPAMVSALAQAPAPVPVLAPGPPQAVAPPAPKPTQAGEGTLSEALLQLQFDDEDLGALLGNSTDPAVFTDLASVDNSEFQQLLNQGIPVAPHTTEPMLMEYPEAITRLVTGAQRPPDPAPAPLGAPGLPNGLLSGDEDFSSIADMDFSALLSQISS
T1 sequence (P19838 1-433 limits assumed): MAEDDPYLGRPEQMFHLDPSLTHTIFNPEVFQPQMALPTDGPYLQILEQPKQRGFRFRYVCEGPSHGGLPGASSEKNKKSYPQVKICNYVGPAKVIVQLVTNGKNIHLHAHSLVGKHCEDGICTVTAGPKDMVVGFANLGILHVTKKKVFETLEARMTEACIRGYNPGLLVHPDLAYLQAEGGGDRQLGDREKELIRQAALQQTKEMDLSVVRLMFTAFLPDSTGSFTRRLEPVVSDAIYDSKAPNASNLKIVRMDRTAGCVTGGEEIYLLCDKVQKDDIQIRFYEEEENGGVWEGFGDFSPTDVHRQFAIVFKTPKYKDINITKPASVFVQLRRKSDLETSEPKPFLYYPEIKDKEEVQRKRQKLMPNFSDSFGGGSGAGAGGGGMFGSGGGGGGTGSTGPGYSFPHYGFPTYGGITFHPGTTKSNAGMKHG

Structure (SMILES) | pIC50 [2] | inhibition at 0.1 µM [1] [%] | Days Delay (tumor growth delay) [3] [days] | Median (days to 4x) [3] [days] | Days to 4x (Ave ±SE) [3] [days] | chemopotentiation of camptothecin [3] | chemopotentiation of cis-platin [3] | zone of inhibition diameter [4] [mm] | tolerability in mice [9] | inhibition of camptothecin induced NF-κB nuclear binding [10] | inhibition of NF-κB p50/p65 heterodimer nuclear translocation [11] | also measured
O=C(O)[C@@]1(c2ccccc2)N=C(c2ccccc2)N(Cc2ccccc2)[C@H]1c1ccccc1 (racemic) [Compound 4, Dl-(3S,4S)-1-Benzyl-2,4,5-triphenyl-4,5-dihydro-1H-imidazole-4-carboxylic acid] | 7.14 |  | -0.56 | 6.5 | 6.4 ± 0.2 | No significant chemopotentiation | considerable chemopotentiation | 12 |  |  |  | inhibition at 1 µM ([1]; compound 1.0 μM): 65%; tumors < 4x at Day 22 ([3]; cis-platin 4 mg/kg + compound 4 100 mg/kg IP): 4 of the 8; zone of inhibition diameter [5]: 12 mm; zone of inhibition diameter [6]: 13 mm; zone of inhibition diameter [7]: 11 mm
C[C@]1(C(=O)O)N=C(c2ccccc2)N(c2ccc(F)cc2)[C@H]1c1ccccc1 (racemic) [Compound 28, dl-(4S,5S)-1-(4-Fluorophenyl)-4-methyl-2,5-diphenyl-4,5-dihydro-1H-imidazole-4-carboxylic acid] |  |  |  |  |  |  |  |  | well tolerated |  |  | Apoptosis (±S.D.) ([8]; Compound 1.0 μm alone, T-cells, 48 hour period, cells only = 1.00 (normalized)): 1.25 ± 0.18
O=C(O)[C@@]1(c2ccccc2)N=C(c2ccccc2)N(Cc2ccccc2)[C@H]1c1ccccc1 (racemic) [Compound 32, dl-(4S,5S)-1-Benzyl-2,4,5-triphenyl-4,5-dihydro-1H-imidazole-4-carboxylic acid] |  |  |  |  |  |  |  |  | well tolerated | inhibited camptothecin induced NF-κB nuclear binding in a dose responds manner | inhibition of nuclear translocation of NF-κB; also recorded: significantly inhibits | Apoptosis (±S.D.) [8]: 1.98 ± 0.0001; chemopotentiation of cis-platin (apoptosis) ([8]; CEM cells, 0.1 micromolar cis-platin + 0.1 micromolar 32 versus 1.0 micromolar cis-platin): chemopotentiation of cis-platin; also recorded: chemopotentiate cis-platin; induction of apoptosis in combination with camptothecin ([8]; CEM cells, CPT 0.1 μM with varying concentrations of imidazoline, 48 hours): dose dependent enhancement of apoptosis; NF-κB-DNA complex formation ([10]; 0.1 μM CPT + 10 μM compound 32 (lane 7 versus lane 5)): significant decrease
N.S=C(S)N1CCCC1 [PDTC, reference compound] |  |  |  |  |  |  |  |  |  | decrease of binding | significant inhibition; also recorded: inhibited NF-κB translocation | 

The next lines start with results.

pIC50 [2] | inhibition at 0.1 µM [1] [%] | Structure (SMILES) | Days Delay (tumor growth delay) [3] [days] | Median (days to 4x) [3] [days] | Days to 4x (Ave ±SE) [3] [days] | chemopotentiation of camptothecin [3] | chemopotentiation of cis-platin [3] | zone of inhibition diameter [4] [mm] | tolerability in mice [9] | inhibition of camptothecin induced NF-κB nuclear binding [10] | inhibition of NF-κB p50/p65 heterodimer nuclear translocation [11] | also measured
6.52 | 84 | C[C@]1(C(=O)O)N=C(c2ccccc2)N(Cc2ccccc2)[C@H]1c1ccncc1 (racemic) [Compound 6, Dl-(3S,4S)-1-Benzyl-4-methyl-2-phenyl-5-pyridin-4yl-4,5-dihydro-1H-imidazole-4-carboxylic acid] | -0.41 | 6.6 | 6.6 ± 0.3 | significant chemopotentiation | significant chemopotentiation | 10 |  |  |  | 
7.70 | 38 | C[C@]1(C(=O)O)N=C(c2ccccc2)N[C@H]1c1ccccc1 (racemic) [Compound 7, Dl (3S,4S)-4-Methyl-2,5-diphenyl-4,5-dihydro-1H-imidazole-4-carboxylic acid] |  |  |  |  |  | 10 |  |  |  | 
